Here are results for two compounds from article PMC9961652 (International Journal of Molecular Sciences, 2023).

One data set deals with washed human platelets. Briefly: Lactate dehydrogenase (LDH) leakage cytotoxicity assay. In kind it is cell-based. Conditions: 50 µM; compared with positive control Triton X-100. Here is the method:
The cytotoxicity of the active analogs was determined with the lactate dehydrogenase (LDH) leakage assay to ensure that platelet inhibition was a consequence of pharmacologic inhibition and not cytotoxicity. LDH is a stable cytosolic marker for membrane perturbation and is present in many cell types, including platelets.
Compound cytotoxicity was assessed using LDH Cytotoxicity Assay Kit (No. 601170; Cayman Chemical, MI) as previously described. Washed human platelets (2.5 × 10^8/mL) were incubated at 37 °C for 10 min with the highest concentration of compounds (50 µM for R-G04 and S-G04, and 20 µM for Rhosin analogs) or the vehicle, dimethyl sulfoxide (DMSO) 0.1% or 10% Triton X-100, which served as the positive control. The platelets were centrifuged at 800× g for 8 min at 4 °C, and 100 µL of the supernatant was mixed with 100 µL of LDH reaction solution in a 96-well plate. The plate was incubated at 37 °C for 10 min under constant orbital shaking before measurement of the absorbance at 490 nm in a plate reader (BioTek Synergy LX multimode reader; Santa Clara, CA, USA).

The next data set deals with RhoA. Briefly: RhoA-GTP formation, GST-Rhotekin effector pull-down assay in collagen-stimulated platelets. It counts as cell-based, human. Conditions: R-G04 10 µM or 50 µM, S-G04 3 µM or 20 µM; collagen 1 µg/mL. Here is the method: Next, the ability of the six compounds to suppress RhoA activity in platelets was assessed by subjecting them to a GST (Glutathione-S-transferase)-Rhotekin effector pull-down assay. The compounds were incubated with washed human platelets for 2 min before being stimulated with 1 µg/mL collagen. The analogs inhibited the activation of RhoA at the 20 µM concentration (Figure 2A,B). […] After confirming that these analogs could prevent RhoA activation and the phosphorylation of the MLC, their ability to disrupt complex-formation between RhoA and LARG was tested. […] These findings indicate that the active analogs inhibit RhoA activation by disrupting the binding between RhoA and its GEF.
(§1) (A,B) Washed human platelets were incubated with collagen (1 µg/mL) for 4 min, and the levels of RhoA-GTP formation were quantified with a GST-Rhotekin effector pull-down assay. The platelets were pre-incubated with 20 µM UC-177618, UC-177619, UC-177628, UC-177629, […], or […] for 2 min before being stimulated with collagen. The addition of ice-cold lysis buffer terminated the reaction. […] Relative amounts of the GTP-bound form of RhoA were quantified with densitometry measurements of total RhoA (T-RhoA) and normalized to untreated platelets. (C,D) The addition of 20 µM of active Rhosin-related compounds to washed human platelets 2 min before stimulation with collagen blocked the phosphorylation of the myosin light chain (p-MLC). The reactions were terminated after 4 min by adding 4x Laemmli sample buffer. The samples were processed for Western blotting and probed for MLC and p-MLC, and phosphorylation was quantified by measuring the densitometry of total MLC (T-MLC). The differences between DMSO- and Rhosin-related compounds were analyzed with t-test, and the results are shown as means ± SDs of three independent experiments. (* p < 0.05, ** p < 0.01, *** p < 0.001, and **** p < 0.0001).
The relative levels of RhoA-GTP in washed human platelets were quantified with effector domains GST-Rhotekin pull-down assays as previously reported. A volume of 250 µL of washed human platelets (2.5 × 10^8/mL) was pre-warmed to 37 °C along with the compounds or DMSO (0.1%) for 2 min before being stimulated with collagen (1 µg/mL). The reactions were terminated 4 min after collagen stimulation by adding ice-cold lysis buffer (20 mM Tris·HCl (pH 7.6), 100 mM NaCl, 1% Triton X-100, 0.2% Sodium Deoxycholate, 10 mM MgCl2, 1 mM dithiothreitol, 1x protease inhibitor cocktail, and 1x phosphatase inhibitor cocktail). The supernatants were collected and subjected to the GST-Rhotekin pull-down assay. The total cell lysates were also blotted in parallel. GTP-bound RhoA was quantitatively detected with Western blotting using an anti-RhoA antibody. The relative amounts of RhoA were quantified with densitometry measurements and normalized to the untreated platelets.

A further data set concerns myosin light chain (MLC). The experiment in a line: Phosphorylation of myosin light chain (p-MLC), Western blot in collagen-stimulated platelets. It counts as cell-based, human. Conditions: different concentrations of R-G04 or S-G04; collagen 1 µg/mL. Here is the method:
as §1, with “(C,D) The addition of 20 µM of active Rhosin-related compounds to washed human platelets 2 min before stimulation with collagen blocked the phosphorylation of the myosin light chain (p-MLC). The reactions were terminated after 4 min by adding 4x Laemmli sample buffer.” left out, “(* p < 0.05, ** p < 0.01, *** p < 0.001, and **** p < 0.0001).” left out
A volume of 250 µL of washed human platelets (2.5 × 10^8/mL) was pre-warmed to 37 °C along with the compounds or DMSO (0.1%) for 2 min before being stimulated with collagen (1 µg/mL) for 4 min. The reactions were terminated by adding 4x Laemmli buffer, and phosphorylated MLC protein was detected with Western blotting as previously reported. Phosphorylation was quantified by measuring the densitometry.
(In western blotting, separated proteins are transferred to a membrane and probed.)

The next data set deals with T1, RhoA-LARG interaction (Homo sapiens, UniProt P61586).
T1 construct: 100 ng of purified full-length RhoA
The experiment in a line: In vitro complex-formation assay of RhoA with LARG DH-PH domain. It counts as binding. Conditions: R-G04 25 µM or 50 µM, S-G04 5 µM or 10 µM; 4 °C, 1 h. How it is done:
(A) A complex-formation assay tested the inhibitory effects of 20 µM UC-177618 and UC-177619 on RhoA interaction with the LARG DH-PH domain. […] After incubating the compound-RhoA-LARG mixture at 4 °C for 1 h, the beads associated with RhoA were detected with anti-RhoA Western blotting. (B,C) Top view of the predicted structural contacts of UC-177618 and UC-177619 in the binding pocket around the Trp58 residue of RhoA.
(A) A complex-formation assay tested the inhibitory effects of R-G04 and S-G04 on RhoA interaction with the LARG DH-PH domain. MBP-(His)6-tagged LARG (100 ng) was immobilized on Amylose beads. Binding buffer containing full-length RhoA (100 ng) was pre-incubated with different concentrations of R-G04 (25 µM or 50 µM), and S-G04 (5 µM or 10 µM) was added to the beads. After incubating the compound-RhoA-LARG mixture at 4 °C for 1 h, the beads associated with RhoA were detected with anti-RhoA Western blotting. (B) Top view of the predicted structural contacts of R-G04 and S-G04 in the binding pocket around the Trp58 residue of RhoA.
In total, 100 ng of purified MBP (Maltose-binding protein)-(His)6-tagged LARG DH-PH was immobilized on 20 µL of suspended amylose beads (No. E8021S; New England Biolabs Inc., Ipswich, MA, USA) by incubating them in an orbital shaker at 4 °C for 30 min in binding buffer (20 mM Tris·HCl (pH 7.6), 100 mM NaCl, 0.01% Triton X-100, 5mM EDTA, and 5 mM MgCl2). The compounds were added to the binding buffer containing 100 ng of purified full-length RhoA and pre-incubated at 4 °C for 30 min under constant agitation. The Amylose beads bound to LARG were washed thrice with binding buffer to get rid of unbound LARG, and the pre-incubated compound-RhoA mixture was added to the beads. This LARG-compound-RhoA mixture was incubated in the orbital shaker at 4 °C for 1 h. The beads were washed three times, and the amount of RhoA protein co-precipitated with the MBP-fusion-bound beads was detected with anti-RhoA Western blotting.

T1 sequence (P61586 whole entry): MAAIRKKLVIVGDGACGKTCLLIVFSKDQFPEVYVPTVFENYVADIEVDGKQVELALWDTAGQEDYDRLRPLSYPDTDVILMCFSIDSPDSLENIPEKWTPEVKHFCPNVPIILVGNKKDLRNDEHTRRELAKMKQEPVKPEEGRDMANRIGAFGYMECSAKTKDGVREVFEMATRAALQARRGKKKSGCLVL

With `N[C@H](Cc1c[nH]c2ccccc12)C(=O)N/N=C/c1ccc2nccnc2c1` [R-G04], in the data set with washed human platelets, the “cytotoxicity, LDH assay” value is “neither R-G04 nor S-G04 induced significant human platelet cytolysis”. Further, in the data set with RhoA, the RhoA-GTP formation entry was “inhibited RhoA-GTP formation in a concentration-dependent manner”. For the same compound, the “phosphorylation of the MLC” value in the data set on myosin light chain (MLC) was “inhibited the downstream phosphorylation of the MLC”. The “LARG binding to RhoA” value at RhoA-LARG interaction is given as “dose-dependently suppressing LARG binding to RhoA”.

Turning to `N[C@@H](Cc1c[nH]c2ccccc12)C(=O)N/N=C/c1ccc2nccnc2c1` [S-G04], in the data set on washed human platelets, the “cytotoxicity, LDH assay” value was “neither R-G04 nor S-G04 induced significant human platelet cytolysis”. Moreover, the RhoA-GTP formation result with RhoA was “inhibited RhoA-GTP formation in a concentration-dependent manner”. In the data set on myosin light chain (MLC), the “phosphorylation of the MLC” value is given as “inhibited the downstream phosphorylation of the MLC”. In addition, the “LARG binding to RhoA” value on RhoA-LARG interaction is listed as “dose-dependently suppressing LARG binding to RhoA”.
